This note sets out measurements from publication PMC5341770 (Nature microbiology, 2017).

Each structure is given as a SMILES string.

The assay deals with T1, WarA (PA4379) (Pseudomonas aeruginosa, UniProt Q9HW23).
T1 sequence (Q9HW23 1-227): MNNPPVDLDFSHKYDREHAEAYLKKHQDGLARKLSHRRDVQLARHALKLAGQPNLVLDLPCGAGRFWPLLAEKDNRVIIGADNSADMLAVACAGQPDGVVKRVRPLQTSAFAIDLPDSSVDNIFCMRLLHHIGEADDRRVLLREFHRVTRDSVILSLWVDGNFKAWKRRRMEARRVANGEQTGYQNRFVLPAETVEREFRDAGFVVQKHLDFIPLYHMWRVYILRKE
To be noted: methyl acceptor: LPS from a warA deletion mutant.

Take `C[S+](CC[C@H](N)C(=O)O)C[C@H]1O[C@@H](n2cnc3c(N)ncnc32)[C@H](O)[C@@H]1O` (stereo partly drawn) [S-adenosyl-L-methionine]: the “fluorescent methyltransferase activity kit” value is “using S-adenosyl-L-methionine as the methyl group donor and measuring activity in relative fluorescent units”.
